This note sets out measurements from publication PMC4506515, “Structural basis for catalytically restrictive dynamics of a high-energy enzyme state” (Nature Communications, 2015).

Assay [1] concerns the target T1, adenylate kinase (AdK) (Escherichia coli, UniProt P69441).
T1 construct: full-length, no tag mentioned; pEAK-91 vector, AdK promotor, BL21(DE3); Blue Sepharose and size exclusion
Kind of assay: NMR spectra of the ADP-saturated enzyme. Format: binding. Particulars: 30 mM MOPS, 50 mM NaCl, pH 7.0; 25 °C.

Assay [2] has as its target T1, adenylate kinase (AdK). Kind of assay: coupled spectroscopic assay, […] nm (NADH). The settings on record: 0.3 mM AMP, 2 mM MgCl2, 100 mM Tris, 80 mM KCl, pH 7.5; 15, 25, 35 and 45 °C. Format: biochemical.
Assay [3] deals with T2, adenylate kinase (AdK) (Escherichia coli, UniProt P69441, P177A).
T2 construct: full-length, no tag mentioned; pEAK-91 vector, AdK promotor, BL21(DE3); Blue Sepharose and size exclusion
T2 sequence (P69441 whole entry P177A): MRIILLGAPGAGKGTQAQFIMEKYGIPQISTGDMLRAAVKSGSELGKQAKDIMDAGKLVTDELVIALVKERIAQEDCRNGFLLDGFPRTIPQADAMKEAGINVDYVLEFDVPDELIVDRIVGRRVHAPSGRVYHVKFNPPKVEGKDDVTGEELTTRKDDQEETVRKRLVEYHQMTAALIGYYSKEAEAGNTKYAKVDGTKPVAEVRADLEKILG
Kind of assay: isothermal titration calorimetry, single-site fit. The settings on record: 30 mM MOPS, 50 mM NaCl, pH 7.0; measured at 15, 25, 35 and 45 °C. Type of assay: binding. A general note: Isothermal titration calorimetry measures the heat released or taken up as one component is titrated into another.

The target in assay [4] is T3, adenylate kinase (AdK) (Escherichia coli, UniProt P69441, Y171W).
T3 construct: full-length, no tag mentioned; pEAK-91 vector, AdK promotor, BL21(DE3); Blue Sepharose and size exclusion
T3 sequence (P69441 whole entry Y171W): as the sequence (P69441 whole entry P177A) above, with Y171W, A177P counted along it
Kind of assay: isothermal titration calorimetry, single-site fit. Format: binding.

For assay [5], the target named is T1, adenylate kinase (AdK). Kind of assay: isothermal titration calorimetry, single-site fit. Format: binding. The settings on record: 30 mM MOPS, 50 mM NaCl, pH 7.0; measured at 15, 25, 35 and 45 °C.

T1 sequence (P69441 whole entry): as the sequence (P69441 whole entry P177A) above, with A177P counted along it

Consider `Nc1ncnc2c1ncn2[C@@H]1O[C@H](COP(=O)(O)OP(=O)(O)O)[C@@H](O)[C@H]1O` [ADP], for which the “NMR spectra of the ADP-saturated enzyme” value in assay [1] is “wild-type AdK in complex with saturating concentrations of the natural substrate ADP”.
As for `Nc1ncnc2c1ncn2[C@@H]1O[C@H](COP(=O)(O)OP(=O)(O)OP(=O)(O)O)[C@@H](O)[C@H]1O` [ATP], the KM entry in assay [2] is recorded as “ATP affinity, KM, for the used spectroscopic assay”.
Usually Kd stands for the constant that tells how readily two partners part at equilibrium. The low end stands for tighter binding, the high end for weaker binding. `Nc1ncnc2c1ncn2[C@@H]1O[C@H](COP(=O)(O)OP(=O)(O)OP(=O)(O)OP(=O)(O)OP(=O)(O)OC[C@H]2O[C@@H](n3cnc4c(N)ncnc43)[C@H](O)[C@@H]2O)[C@@H](O)[C@H]1O` [Ap5a, P1,P5-di(adenosine-5′)pentaphosphate]: the KD entry in assay [3] is “KD values for the wild type, P177A and Y171W variants”; in assay [5], “KD values for the wild type, P177A and Y171W variants”. The Kd in assay [4] was found to be 0.25 ± 0.06 µM.
